According to ChEMBL document CHEMBL4339187, “Discovery of a new class of MTH1 inhibitor by X-ray crystallographic screening” (Eur J Med Chem, 2019):
Activity calls are given as the source filed them. The calls are words filed in the database; no cut-off is given here.

Experiments:
Escherichia coli = experiment: Inhibition of Escherichia coli inorganic pyrophosphatase assessed as reduction in orthophosphate formation at 0.3 to 10 uM measured after 40 using pyrophosphate as substrate by malachite green dye based absorbance assay
[1] = molecular target: Oxidized purine nucleoside triphosphate hydrolase (Homo sapiens) (UniProt P36639); experiment: Binding affinity to recombinant C-terminal 6xHis-tagged MTH1 (3 to 156 residues) (unknown origin) expressed in Escherichia coli BL21(DE3) cells assessed as decrease in fluorescence intensity at 1 to 10 uM after 3 mins by tryptophan fluorescence spectroscopy
[2] = molecular target: Oxidized purine nucleoside triphosphate hydrolase (Homo sapiens) (UniProt P36639); experiment: Binding affinity to recombinant C-terminal 6xHis-tagged MTH1 (3 to 156 residues) (unknown origin) expressed in Escherichia coli BL21(DE3) cells assessed as decrease in fluorescence intensity at 1 to 200 uM after 3 mins by tryptophan fluorescence spectroscopy

SMILES | inhibition (Escherichia coli) | Activity [1] | Activity [2]
COc1c(O)cc2oc3cc(O)c(CC=C(C)C)c(O)c3c(=O)c2c1CC=C(C)C | inactive |  | 
CNc1cc(-c2cccc(Cl)c2Cl)nc(N)n1 |  | Active | 
COc1c(O)cc2oc3cc4c(c(O)c3c(=O)c2c1CC=C(C)C)CCC(C)(C)O4 | inactive | Active | 
CC(C)=CCc1c(O)cc2oc3cc(O)c(O)c(CC=C(C)C)c3c(=O)c2c1O |  | Active | 
Nc1nc2c(ncn2[C@H]2C[C@H](O)[C@@H](COP(=O)(O)OP(=O)(O)OP(=O)(O)O)O2)c(=O)[nH]1 |  | Active | Active
